{
  "source": "patent US8153821B2",
  "about": "“Compounds” (priority 2008, dated 2012)",
  "key": {"[1]": {"format": "in vitro ADME", "conditions": "human", "text": "(§1) Therefore any variation of (R)-3-((E)-2-(pyrrolidin-3-yl)vinyl)-5-(tetrahydropyran-4-yloxy)pyridine or a salt thereof metabolism in human due to CYP polymorphism is expected to be less than 2 fold due to the significant renal clearance and low hepatic clearance."}, "[2]": {"tested_on": "CYP2D6 and FMO3", "format": "in vitro ADME", "conditions": "human", "text": "as §1"}, "[3]": {"format": "physicochemical", "text": "One aspect of the present invention relates to novel salt forms of (R)-3-((E)-2-(pyrrolidin-3-yl)vinyl)-5-(tetrahydropyran-4-yloxy)pyridine. […] However, the free base may react with both inorganic and organic acids to make acid addition salts that have physical properties that are advantageous for the preparation of pharmaceutical compositions such as crystallinity, water solubility, and stability toward chemical degradation."}},
  "data": [
    {"smiles": "C(=C\\[C@H]1CCNC1)/c1cncc(OC2CCOCC2)c1", "note": "[Compound A, (R)-3-((E)-2-(pyrrolidin-3-yl)vinyl)-5-(tetrahydropyran-4-yloxy)pyridine]", "values": [
      {"measurement": "hepatic turnover rate", "setting": "[1]", "result": "low hepatic turnover rate"},
      {"measurement": "enzymes contributing to metabolism", "setting": "[2]", "result": "both CYP2D6 and FMO3 contributed to the metabolism"},
      {"measurement": "water solubility", "setting": "[3]", "result": "limited water solubility"}
    ]}
  ]
}
